Here are results for four molecules from paper PMC10488193, “Evaluation of the Chemical Stability, Membrane Permeability and Antiproliferative Activity of Cyclic Diarylheptanoids from European Hornbeam (Carpinus betulus L.)” (International Journal of Molecular Sciences, 2023).

Where only a bound is given, the exact number is not on record here.

On the set-up of data set [1]: method as in PMID 12350169. The note with it: cited from earlier work.
The next data set can be described thus: PAMPA-GI. It counts as in vitro ADME. The note with it: for Papp at 4 h, 100 µM: PAMPA, read-out: logPe PAMPA-GI (n = 9) (converted). As for the experimental part: (§1) A parallel artificial membrane permeability assay (PAMPA) was used to determine the effective permeability (Pe) for the Carpinus diarylheptanoids. Stock solutions of the isolated compounds (10 mM in DMSO) were diluted with the defined buffer (pH 7.4 for the PAMPA-BBB and pH 6.8 for the PAMPA-GI assays) to obtain the donor solutions (composition: 297.0 μL buffer + 3.0 μL stock solution). Donor solutions were filtered through Phenex-RC 15 mm, 0.2 μm syringe filters (Gen-Lab Ltd., Budapest, Hungary).
For the PAMPA-BBB test, 5 μL of porcine polar brain lipid extract (PBLE) solution (16.0 mg PBLE + 8.0 mg cholesterol dissolved in 600.0 μL n-dodecane) was applied for each well of the 96-well polycarbonate-based filter donor plates (top plate) (Multiscreen™-IP, MAIPN4510, pore size 0.45 μm; Merck). For the PAMPA-GI assay, the wells of the top plate were coated with 5 μL of the mixture of 8.0 mg phosphatidylcholine + 4.0 mg cholesterol dissolved in 300.0 μL n-dodecane. The 150.0 μL aliquots of the filtrated donor solutions were placed on the membrane. The 96-well PTFE acceptor plates (bottom plates) (Multiscreen Acceptor Plate, MSSACCEPTOR; Merck), were filled with 300.0 μL buffer solution (0.01 M PBS buffer, pH 7.4). […]
After the incubation, the plates were separated and the compound concentrations in the donor (CD(t)) and acceptor (CA(t)) solutions were determined using the aforementioned UHPLC-DAD method (see Section 3.4). […] The effective permeability and the membrane retention in the PAMPA-BBB and the PAMPA GI experiments were calculated by Equations (3) and (4), respectively:(3) Pe=−2.303/A(t−τSS)·VA·VD/VA+VD·lg1−VA+VD/1−MR·VD×CAt/CD0 (4) Pe=−2.303/A(t−τSS))·1/1+ra·lg−ra+1+ra/1−MR×CDt/CD0 where Pe is the effective permeability coefficient (cm/s), A is the filter area (0.24 cm^2), VD and VA are the volumes in the donor (0.15 cm^3) and acceptor phases (0.30 cm^3), t is the incubation time (s), τSS is the time (s) to reach steady state (240 s), CD(t) is the concentration (mol/cm^3) of the compound in the donor phase at time t, CD(0) is the concentration (mol/cm^3) of the compound in the donor phase at time 0, MR is the estimated membrane retention factor (the estimated mole fraction of solute lost to the membrane) and ra is the sink asymmetry ratio (gradient-pH-induced), defined as:(5) ra=VD/VA×Pe(A→D)/Pe(D→A) (6) MR=1−CDt/CD0−VA/VDCAt/CD0
(§2) All experiments were performed in three triplicates on three consecutive days (n = 9); caffeine standard was used as positive, while rutin was used as negative control. Clog P values were calculated using ACD/ChemSketch (Freeware) 2 January 2020 (Advanced Chemistry Development, Inc., Toronto, ON, Canada).

Data set [2] relates to HepG2 (hepatocellular carcinoma). Kind of data set: In vitro antiproliferative activity, Alamar Blue assay. It counts as cell-based. The settings on record: Homo sapiens; HepG2, 24 h treatment, then three days culture, n = 2; read-out: IC50 ± SD. As for the experimental part:
(§3) For the experiments, the following human cell lines were used: A2058 (melanoma, derived from metastatic site: lymph node), HepG2 (hepatocellular carcinoma), U87 (glioblastoma), HT-29 (colorectal carcinoma) and HL-60 (acute promyelocytic leukaemia). Cell lines were generous gifts from Dr. […] (Department of Experimental Pharmacology, National Institute of Oncology, Budapest, Hungary). […] The cultures were maintained at 37 °C in a humidified atmosphere with 5% CO2. The cells were grown to confluency and then divided into 96-well tissue culture plates (Sarstedt, Nümbrecht, Germany) with an initial cell number of 5000 cells/well. Cells were incubated at 37 °C in a 5% CO2 humidified atmosphere overnight. Before the assay, 50 μL of the supernatant was removed and replaced with a 50 μL serum-free medium (SFM). […] The cells were treated for 24 h with the compounds and negative control cells (no compound control) were treated with SFM only (incubated at 37 °C). […] The percentage of cytostasis was calculated with the following equation: […] Data were evaluated with Excel (version: 365; Microsoft, Redmond, WA, USA) and the curves were defined using Microcal OriginPro (version: 2018; OriginLab, Northampton, MA, USA) software. In each case, two independent experiments were carried out with four parallel measurements and the mean IC50 values together with ±SD were represented. The Excel (version: 365) (Microsoft, Redmond, WA, USA) and Microcal OriginPro (version: 2018) (OriginLab, Northampton, MA, USA) softwares were used for data evaluation.

Data set [3] relates to A2058 (melanoma, derived from metastatic site: lymph node). The data set is described as above. It counts as cell-based. The note with it: Homo sapiens; A2058, 24 h treatment, then three days culture, n = 2; read-out: IC50 ± SD. As for the experimental part:
as §3

In data set [4] the test system is HT-29 (colorectal carcinoma). The data set is described as above. It is filed as cell-based. The note with it: Homo sapiens; HT-29, 24 h treatment, then three days culture, n = 2; read-out: IC50 ± SD. As for the experimental part: as §3
Data set [5] relates to HL-60 (acute promyelocytic leukaemia). The description is as above. It is filed as cell-based. The note with it: Homo sapiens; HL-60, 24 h treatment, then three days culture, n = 2; read-out: IC50 ± SD. As for the experimental part:
as §3

The subject of another data set is U87 (glioblastoma). The data set is described as above. It is filed as cell-based. The note with it: Homo sapiens; U87, 24 h treatment, then three days culture, n = 2; read-out: IC50 ± SD. As for the experimental part:
as §3

Another data set can be described thus: PAMPA-BBB. It counts as in vitro ADME. The note with it: pH 7.4, read-out: logPe PAMPA-BBB (n = 9) (converted). As for the experimental part:
as §1
For the PAMPA-BBB test, 5 μL of porcine polar brain lipid extract (PBLE) solution (16.0 mg PBLE + 8.0 mg cholesterol dissolved in 600.0 μL n-dodecane) was applied for each well of the 96-well polycarbonate-based filter donor plates (top plate) (Multiscreen™-IP, MAIPN4510, pore size 0.45 μm; Merck). […]
After the incubation, the plates were separated and the compound concentrations in the donor (CD(t)) and acceptor (CA(t)) solutions were determined using the aforementioned UHPLC-DAD method (see Section 3.4). […]
as §2

For data set [6], the system named is A375 human melanoma cell line. Details: method as in PMID 28208804. The note with it: cited from earlier work.
Data set [7] has as its system lipid peroxidation in human plasma. The arrangement: method as in PMID 28520428. The settings on record: cited from earlier work.
Data set [8] has as its system SK-Mel-28 human melanoma cell line. The arrangement: method as in PMID 28208804. The note with it: cited from earlier work.
Data set [9] concerns A549 human lung adenocarcinoma cells. The arrangement: method as in PMID 28520428, PMID 28941682. The settings on record: cited from earlier work.

As for `O=C1C[C@H](O)[C@@H](O)Cc2ccc(O)c(c2)-c2cc(ccc2O)C[C@H]1O` [Compound 1, carpinontriol A], in data set [1], the “antioxidant activity (in words)” value is “only weak antioxidant activity”. Moreover, the Papp at 4 h, 100 µM in the data set “PAMPA-GI” is 0.562 ×10⁻⁶ cm/s. The half-inhibitory concentration (IC50) is greater than 100 µM in data set [2]; 14.9 ± 2.3 µM in data set [3]; greater than 100 µM in [4]; greater than 100 µM in data set [5]; greater than 100 µM in the data set on U87 (glioblastoma).
`O=C1CCc2ccc(O)c(c2)-c2cc(ccc2O)C[C@@H](O)[C@H](O)C1` [Compound 3, giffonin X]: the Papp at 4 h, 100 µM in “PAMPA-GI” is 6.03 ×10⁻⁶ cm/s; in the data set “PAMPA-BBB”, 1.2 ×10⁻⁶ cm/s. Moreover, the IC50 (in [2]; in data set [3]; in data set [4]; in [5]; in the data set with U87 (glioblastoma)) was greater than 100 µM in each case.
For `O=C1CCC(=O)C(O)Cc2ccc(O)c(c2)-c2cc(ccc2O)C1` (stereo not shown) [Compound 4, 3,12,17-trihydroxytricyclo [12.3.1.1^2,6]nonadeca-1(18),2(19),3,5,14,16-hexaene-8,11-dione], in “PAMPA-GI” (donor pH 6.8, acceptor pH 7.4, 37 °C, 4 h, Pe in cm/s, n.d. = not detected in the acceptor phase), the “logPe PAMPA-GI (n = 9)” value is reported as “not detected in the acceptor phase”. Besides, the IC50 (in data set [2]; in data set [3]; in data set [4]; in data set [5]; with U87 (glioblastoma)) was greater than 100 µM in each case.
As for `O=C1CCc2ccc(O)c(c2)-c2cc(ccc2O)C[C@H](O)[C@H](O)[C@H]1O` [Compound 2, carpinontriol B], the “cytotoxic concentration (not cytotoxic up to)” value in [6] and in [8] was greater than 1000 µM in each case. Moreover, the “lipid peroxidation induced by H2O2 (in words)” value in [7] is recorded as “inhibited lipid peroxidation”. For the same molecule, the “antioxidant activity (in words)” value in data set [1] is listed as “only weak antioxidant activity”. Moreover, the Papp at 4 h, 100 µM in the data set “PAMPA-GI” is 3.47 ×10⁻⁶ cm/s. Further, the IC50 (in data set [9]; in [2]; in [3]; in data set [4]; in data set [5]; in the data set with U87 (glioblastoma)) was greater than 100 µM each time.
